Data as given in patent US10428022B2, “Iminosugars useful for the treatment of viral diseases” (Emergent Virology, LLC, priority 2014, dated 2019).

Tests used:
[1] = In vivo pharmacokinetics in mouse; settings: plasma
[2] = Aqueous solubility in acidified water; assay type: physicochemical; settings: aqueous buffer; in acidified water pH~4
[3] = In vivo pharmacokinetics in guinea pig; settings: plasma
[4] = tested on: Venezuelan Equine Encephalitis Virus (VEEV TC-83 stain); test: microbe, parasite or virus in culture; assay type: cell-based; settings: Vero, 72 h, read-out: IC50 Venezuelan Equine Encephalitis TC-83 (VEEV)
[5] = CellTiter-Glo Luminescent Cell Viability Assay (cytotoxicity); assay type: cell-based; settings: African green monkey; Vero cells, 3-5 days in culture
Experimental: Cytotoxicity: To determine the cytotoxicity of the compounds in Vero cells, the CellTiter-Glo Luminescent Cell Viability Assay (Promega) was used. The compounds were tested at 6-8 concentrations in three replicates. Control conditions include vehicle-only treated cells to set 100% surviving cells, DMSO-killed cells as a cell death-inducing control, and no cells for 0% surviving cells. Cytotoxicity is measured after 3-5 days in culture by the change/decrease in relative light units (RLUs) in each sample which reflects the amount of ATP present (an indicator of metabolically active cells).
The 50% cellular cytotoxicity (CC50) value is calculated based on the RLUs of the compound-treated samples using vehicle-only control as 100% survival and no cells as 0% survival.

[6] = tested on: dengue virus (DENV serotype 2, strain New Guinea C); test: microbe, parasite or virus in culture; assay type: cell-based; settings: DENV2, 120 h, virus yield reduction in Vero cells, 5 days
[7] = Ames (Cerep); settings: with or without S9 activation
Experimental: (§1) Assays for drug likeness (solubility, microsomal stability, plasma protein binding, A-B efflux, cytochrome CYP450 3A4, hERG binding, and Ames) were carried out by Cerep (Washington USA, and France) using standard protocols for in vitro testing. Assay protocols are provided online at http://www.cerep.fecerep/users/pages/catalog/profiles/catalog.asp and Cerep standard procedures and concentrations were used for all assays.

[8] = A-B Efflux (Caco2) (Cerep); assay type: in vitro ADME; settings: human, Caco-2
Experimental: as §1

[9] = In vivo pharmacokinetics and oral bioavailability in rat; design: species or system male Sprague-Dawley rats; settings: male, Sprague-Dawley, plasma
Experimental: In vivo pharmacokinetic parameters and oral bioavailability for UV-0060 was determined by Eurofins (Cerep Panlabs, Taiwan). A pharmacokinetic study following oral and intravenous administrations was performed using male Sprague-Dawley rats. Test article was formulated in 2% DMSO/0.9% NaCl and administered orally (PO) at 10 mg/kg and intravenously (IV) at 5 mg/kg to groups of 3 rats. The dosing volume was 10 mL/kg for PO and 5 mL/kg for IV. Rats weighing 220±20 g were used. Blood samples were harvested at 3, 10, 30, 60, 120, 240, 360, 720 and 1440 minutes after intravenous injection and at 10, 30, 60, 120, 240, 360, 720 and 1440 minutes after oral administration. Blood was collected in tubes coated with lithium heparin, mixed gently, then kept on ice and centrifuged at 2,500×g for 15 minutes at 4° C., within 1 hour of collection. The plasma was harvested and kept frozen at −80° C. until further processing. A plasma calibration curve from 3-10000 ng/mL was generated using oxybutynin as internal standard. Aliquots of drug-free plasma were spiked with the test compound at the specified concentration levels. Plasma samples were processed using acetonitrile precipitation and analyzed by HPLC/MS/MS. The spiked plasma samples were processed together with the unknown plasma samples using the same procedure. HPLC/MS/MS analysis was carried out with electrospray ionization in positive ion mode with multiple reaction monitoring. HPLC column was Agilent Poroshell 120 EC-C18 column 2.7 μm (3.0×50 mm, 23° C.) with an acetonitrile/water/formic acid mobile phase gradient. Standards data were fitted linearly with a 1/x2 weighting.

[10] = Human microsomal stability (Cerep); assay type: in vitro ADME; settings: human microsomes; read-out: Human microsomal stability: t½
Experimental: as §1

[11] = target: T1, CYP3A4 (Homo sapiens, UniProt P08684); test: CYP450 3A4 inhibition (Cerep); assay type: in vitro ADME
T1 construct: Cerep
Experimental: as §1

[12] = Aqueous solubility in gastric and intestinal fluids (Cerep); assay type: physicochemical
Experimental: as §1

[13] = Human plasma protein binding (Cerep); assay type: in vitro ADME
Experimental: as §1

[14] = Mouse, single dose, tested IV, oral routes
[15] = Guinea pig, single dose, tested IV, SQ, IM routes

T1 sequence (P08684 whole entry): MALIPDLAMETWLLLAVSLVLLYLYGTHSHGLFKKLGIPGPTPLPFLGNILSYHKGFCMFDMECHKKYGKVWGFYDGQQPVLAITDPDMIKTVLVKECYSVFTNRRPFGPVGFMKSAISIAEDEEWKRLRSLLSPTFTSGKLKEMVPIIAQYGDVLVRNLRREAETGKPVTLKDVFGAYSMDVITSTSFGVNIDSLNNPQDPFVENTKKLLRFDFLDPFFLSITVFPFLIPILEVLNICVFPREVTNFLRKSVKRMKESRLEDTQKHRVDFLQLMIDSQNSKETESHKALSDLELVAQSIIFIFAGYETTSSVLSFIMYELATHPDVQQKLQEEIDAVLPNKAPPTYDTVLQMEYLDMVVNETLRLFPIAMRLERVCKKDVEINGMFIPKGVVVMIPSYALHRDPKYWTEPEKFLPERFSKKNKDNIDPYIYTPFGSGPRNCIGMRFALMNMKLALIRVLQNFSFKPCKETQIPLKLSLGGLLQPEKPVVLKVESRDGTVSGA

Which half-life ([1]; mouse, Mouse, single dose, tested IV, oral routes, read-out: T1/2) does the source give for `[N-]=[N+]=Nc1ccc(NCCCCCCN2C[C@H](O)[C@@H](O)[C@H](O)[C@H]2CO)c([N+](=O)[O-])c1` [UV-5] here?
Its half-life is 4.09 to 8.96 h.

What about the half-life ([1]; mouse, mice, read-out: Plasma t½) of the same compound?
The half-life was roughly 4 h.

And the bioavailability ([1]; mouse, mice, oral)?
Its bioavailability is 80%.

What about the Cmax [1, 14] of the same compound?
The Cmax was 14400 ng/mL.

What about the Tmax [1, 14] of the same compound?
The Tmax was 1 h.

And the solubility [2]?
Its solubility is greater than 112 mg/mL.

What about the clearance ([3]; guinea pig) of the same compound?
Its clearance is 233 mL/min/kg.

What about the half-life ([3]; guinea pig, Guinea pig, single dose, tested IV, SQ, IM routes, read-out: T½) of the same compound?
The half-life was 1.62 to 3.99 h.

What about the half-life ([3]; guinea pig, guinea pig, read-out: Plasma t½) of the same compound?
The half-life was 1.62 h.

What about the Vd ([3]; guinea pig, read-out: Vss) of the same compound?
Its Vd is 16.9 L/kg.

And the bioavailability ([3]; other: IM, Guinea pig, IM, SC)?
Its bioavailability is 187 to 198%.

What about the Cmax [3, 15] of the same compound?
The Cmax was 2320 to 3790 ng/mL.

What about the Tmax [3, 15] of the same compound?
Its Tmax is 0.75 to 1.13 h.

With `OC[C@@H]1[C@@H](O)[C@H](O)[C@@H](O)CN1CCCCCCCCc1ccco1` [UV-30, (2R,3R,4R,5S)-1-(8-(furan-2-yl)octyl)-2-(hydroxymethyl)piperidine-3,4,5-triol] as the compound, how does the IC50 [4] read?
The IC50 was 14 µM.

And the CC50 [5]?
Its CC50 is no less than 125 µM.

What about the IC50 [6] of the same compound?
The IC50 was 7 µM.

With `O=[N+]([O-])c1cc(-n2nccn2)ccc1NCCCCCCN1C[C@H](O)[C@@H](O)[C@H](O)[C@H]1CO` [UV-0060] as the compound, how does the Ames [7] read?
Its Ames is “Ames: negative with or without S9”.

And the IC50 [4]?
The IC50 was 94.1 µM.

And the CC50 [5]?
Its CC50 is 245 µM.

And the Papp A→B [8]?
Its Papp A→B is roughly 0.3 ×10⁻⁶ cm/s.

And the bioavailability ([9]; PO 10 mg/kg vs IV 5 mg/kg)?
Its bioavailability is 6%.

And the clearance ([9]; single dose, IV 5 mg/kg)?
Its clearance is 72.9 mL/min/kg.

And the half-life ([9]; single dose, IV 5 mg/kg, read-out: T1/2 (IV))?
The half-life was 2.8 h.

What about the Tmax ([9]; single dose, PO 10 mg/kg) of the same compound?
The Tmax was 2.2 h.

What about the half-life ([9]; single dose, PO 10 mg/kg, read-out: T1/2 (PO)) of the same compound?
The half-life was 2.2 h.

And the half-life [10]?
The half-life was greater than 1 h.

And the inhibition at 10 µM [11]?
The inhibition at 10 µM was 0.2%.

And the solubility ([12]; gastric fluid, simulated gastric fluid, read-out: Aqueous solubility in gastric fluid)?
Its solubility is greater than 200 µM.

And the solubility ([12]; intestinal fluid, fassgf or other biorelevant, read-out: Aqueous solubility in intestinal fluid)?
The solubility was greater than 200 µM.

And the IC50 [6]?
Its IC50 is 5 µM.

What about the fraction unbound at 10 microM [13] of the same compound?
Its fraction unbound at 10 microM is 0.12.
